Organism: Rattus norvegicus
Test: DrugMatrix - Regimen: Daily Repeat
Type: toxicity, organism-based, Sprague-Dawley
Parameters: regimen Daily Repeat, gender Male, age 6-8 weeks
Conditions: in vivo, po, route oral GAVAGE, vehicle 100 % WATER; for ABSOLUTE BASOPHIL / ABSOLUTE EOSINOPHIL / ABSOLUTE LYMPHOCYTE / ABSOLUTE MONOCYTE / ABSOLUTE SEGMENTED NEUTROPHIL / BASOPHIL / EOSINOPHIL / ERYTHROCYTE COUNT / HEMATOCRIT / HEMOGLOBIN / LEUKOCYTE COUNT / LYMPHOCYTE / MEAN CORPUSCULAR HEMOGLOBIN / MEAN CORPUSCULAR HEMOGLOBIN CONCENTRATION / MEAN CORPUSCULAR VOLUME / MONOCYTE / NEUTROPHIL / NUCLEATED RED BLOOD CELLS / PLATELET COUNT: tissue Blood; for ALANINE AMINOTRANSFERASE / ALBUMIN / ALKALINE PHOSPHATASE / ASPARTATE AMINOTRANSFERASE / BLOOD UREA NITROGEN / CARBON DIOXIDE / CHLORIDE / CHOLESTEROL / CREATINE PHOSPHOKINASE / CREATININE / GLUCOSE / LACTATE DEHYDROGENASE / LIPASE / PHOSPHORUS / POTASSIUM / SODIUM / TOTAL BILIRUBIN / TOTAL PROTEIN / URIC ACID: tissue Plasma
[1] = 0 mg/kg, 72 h, dose level Control, time 3 day
[2] = 0 mg/kg, 120 h, dose level Control, time 5 day
[3] = 10 mg/kg, 72 h, dose level Low, time 3 day

CC(C)(C)NC[C@H](O)COc1nsnc1N1CCOCC1 [TIMOLOL]
ABSOLUTE BASOPHIL [1]: 0 CELLS/uL | ABSOLUTE EOSINOPHIL [1]: 0 CELLS/uL | ABSOLUTE LYMPHOCYTE [1]: 8482.5 CELLS/uL | ABSOLUTE MONOCYTE [1]: 63.83 CELLS/uL | ABSOLUTE SEGMENTED NEUTROPHIL [1]: 887 CELLS/uL | BASOPHIL [1]: 0% | EOSINOPHIL [1]: 0% | ERYTHROCYTE COUNT [1]: 5.49 x10E6/uL | HEMATOCRIT [1]: 34.5% | HEMOGLOBIN [1]: 13.33 G/DL | LEUKOCYTE COUNT [1]: 9.43 x10E3/uL | LYMPHOCYTE [1]: 90.17% | MEAN CORPUSCULAR HEMOGLOBIN [1]: 24.3 pg | MEAN CORPUSCULAR HEMOGLOBIN CONCENTRATION [1]: 38.63 G/DL | MEAN CORPUSCULAR VOLUME [1]: 62.88 fL | MONOCYTE [1]: 0.67% | NEUTROPHIL [1]: 9.17% | NUCLEATED RED BLOOD CELLS [1]: 0.67 /100WBC | PLATELET COUNT [1]: 1022.83 x10E3/uL | ALANINE AMINOTRANSFERASE [1]: 50.5 u/L | ALBUMIN [1]: 4.08 G/DL | ALKALINE PHOSPHATASE [1]: 368.33 u/L | ASPARTATE AMINOTRANSFERASE [1]: 87.5 u/L | BLOOD UREA NITROGEN [1]: 12.83 mg/dL | CARBON DIOXIDE [1]: 32.83 mmol/L | CHLORIDE [1]: 99.67 MEQ/L | CHOLESTEROL [1]: 79.67 mg/dL | CREATINE PHOSPHOKINASE [1]: 585 u/L | CREATININE [1]: 0.22 mg/dL | GLUCOSE [1]: 135.67 mg/dL | LACTATE DEHYDROGENASE [1]: 171 u/L | LIPASE [1]: 9.5 u/L | PHOSPHORUS [1]: 11.18 mg/dL | POTASSIUM [1]: 6.25 MEQ/L | SODIUM [1]: 144.87 MEQ/L | TOTAL BILIRUBIN [1]: 0.2 mg/dL | TOTAL PROTEIN [1]: 6.08 G/DL | URIC ACID [1]: 0.65 mg/dL | ABSOLUTE BASOPHIL [2]: 0 CELLS/uL | ABSOLUTE EOSINOPHIL [2]: 14.5 CELLS/uL | ABSOLUTE LYMPHOCYTE [2]: 7596.17 CELLS/uL | ABSOLUTE MONOCYTE [2]: 69.67 CELLS/uL | ABSOLUTE SEGMENTED NEUTROPHIL [2]: 503 CELLS/uL | BASOPHIL [2]: 0% | EOSINOPHIL [2]: 0.17% | ERYTHROCYTE COUNT [2]: 5.49 x10E6/uL | HEMATOCRIT [2]: 34.72% | HEMOGLOBIN [2]: 13.47 G/DL | LEUKOCYTE COUNT [2]: 8.18 x10E3/uL | LYMPHOCYTE [2]: 92.17% | MEAN CORPUSCULAR HEMOGLOBIN [2]: 24.57 pg | MEAN CORPUSCULAR HEMOGLOBIN CONCENTRATION [2]: 38.82 G/DL | MEAN CORPUSCULAR VOLUME [2]: 63.3 fL | MONOCYTE [2]: 1% | NEUTROPHIL [2]: 6.67% | NUCLEATED RED BLOOD CELLS [2]: 0 /100WBC | PLATELET COUNT [2]: 1141 x10E3/uL | ALANINE AMINOTRANSFERASE [2]: 48.33 u/L | ALBUMIN [2]: 4.07 G/DL | ALKALINE PHOSPHATASE [2]: 395.67 u/L | ASPARTATE AMINOTRANSFERASE [2]: 85.67 u/L | BLOOD UREA NITROGEN [2]: 15.83 mg/dL | CARBON DIOXIDE [2]: 31.33 mmol/L | CHLORIDE [2]: 100.83 MEQ/L | CHOLESTEROL [2]: 62.33 mg/dL | CREATINE PHOSPHOKINASE [2]: 248.33 u/L | CREATININE [2]: 0.2 mg/dL | GLUCOSE [2]: 135.67 mg/dL | LACTATE DEHYDROGENASE [2]: 141.33 u/L | LIPASE [2]: 9.5 u/L | PHOSPHORUS [2]: 10.73 mg/dL | POTASSIUM [2]: 6.07 MEQ/L | SODIUM [2]: 145.35 MEQ/L | TOTAL BILIRUBIN [2]: 0.22 mg/dL | TOTAL PROTEIN [2]: 6.12 G/DL | URIC ACID [2]: 0.63 mg/dL | ABSOLUTE BASOPHIL [3]: 0 CELLS/uL | ABSOLUTE EOSINOPHIL [3]: 0 CELLS/uL | ABSOLUTE LYMPHOCYTE [3]: 11252 CELLS/uL | ABSOLUTE MONOCYTE [3]: 71.67 CELLS/uL | ABSOLUTE SEGMENTED NEUTROPHIL [3]: 843 CELLS/uL | BASOPHIL [3]: 0% | EOSINOPHIL [3]: 0% | ERYTHROCYTE COUNT [3]: 5.24 x10E6/uL | HEMATOCRIT [3]: 32.97% | HEMOGLOBIN [3]: 12.83 G/DL | LEUKOCYTE COUNT [3]: 12.17 x10E3/uL | LYMPHOCYTE [3]: 92.33% | MEAN CORPUSCULAR HEMOGLOBIN [3]: 24.5 pg | MEAN CORPUSCULAR HEMOGLOBIN CONCENTRATION [3]: 38.93 G/DL | MEAN CORPUSCULAR VOLUME [3]: 62.97 fL | MONOCYTE [3]: 0.67% | NEUTROPHIL [3]: 7% | NUCLEATED RED BLOOD CELLS [3]: 0 /100WBC | PLATELET COUNT [3]: 939 x10E3/uL | ALANINE AMINOTRANSFERASE [3]: 57 u/L | ALBUMIN [3]: 4.03 G/DL | ALKALINE PHOSPHATASE [3]: 444 u/L | ASPARTATE AMINOTRANSFERASE [3]: 84.67 u/L | BLOOD UREA NITROGEN [3]: 14.67 mg/dL | CARBON DIOXIDE [3]: 33 mmol/L | CHLORIDE [3]: 100 MEQ/L | CHOLESTEROL [3]: 81.67 mg/dL | CREATINE PHOSPHOKINASE [3]: 370 u/L | CREATININE [3]: 0.37 mg/dL | GLUCOSE [3]: 138.33 mg/dL | LACTATE DEHYDROGENASE [3]: 111.33 u/L | LIPASE [3]: 10.67 u/L | PHOSPHORUS [3]: 11.57 mg/dL | POTASSIUM [3]: 6.01 MEQ/L | SODIUM [3]: 145.4 MEQ/L | TOTAL BILIRUBIN [3]: 0.17 mg/dL | TOTAL PROTEIN [3]: 5.77 G/DL | URIC ACID [3]: 0.6 mg/dL
